# Results published in US20100034778A1, “STEM CELLS” (DUKE UNIVERSITY, priority 2005, published 2010).
# “And” between values parts separate entries of the source, which are not always exact repeats. Equal values may be shown once. “Also recorded” adds a separate entry of the source.
# How the values were obtained:
# [1] = system: CB CD34^+CD38^−lin^− cells; experiment: Culture of human CB CD34+CD38-lin- cells with TSF plus retinoid/rexinoid ligand (immunophenotype, CFC content); type: cell-based
# Description: (§1) Isolation of Human BM and CB CD34^+CD38^−lin− cells
# (§2) Whole BM and CB units were obtained from the Duke University Stem Cell Laboratory within 48 hours of collection. Volume reduction of CB units was accomplished by 10 minute incubation at room temperature with 1% Hetastarch (Abbott Laboratories, North Chicago, Ill.), followed by centrifugation at 700 rpm for 10 minutes to facilitate component separation. The buffy coat was collected and washed twice with Dulbecco's phosphate buffered saline (PBS; Invitrogen, Carlsbad, Calif.) containing 10% heat-inactivated fetal bovine serum (FBS; Hyclone, Logan, Utah), 100 U/ml penicillin, and […] streptomycin (1% pcn/strp; Invitrogen). Cell pellets were resuspended in PBS with 10% FBS and 1% pcn/strp and overlaid onto Lymphoprep (Axis-Shield, Olso, Norway) and centrifuged at 1500 rpm for 30 minutes to isolate the mononuclear cell (MNC) fraction. MNCs were collected and washed twice before proceeding to lineage depletion.
# (§3) Briefly, CB or BM MNCs were resuspended at 5−8×10^7 cells/ml in PBS with 10% FBS and 1% pcn/strp and incubated with 100 μl/ml antibody cocktail for 30 minutes followed by incubation with 60 μl/ml magnetic colloid for 30 minutes. Cells were then magnetically depleted on a pump fed negative selection column (Stem Cell Technologies) using the manufacturer's recommended procedure. Lin-cells were washed twice, quantified by hemacytometer count and cryopreserved in 90% FBS and 10% dimethylsulfoxide (DMSO; Sigma-Aldrich, St. Louis, Mo.) or utilized directly for further experiments.
# (§4) Lin^− CB or BM cells were thawed, washed once in Iscove's Modified Dulbecco's Medium (IMDM; Invitrogen) containing 10% FBS and 1% pcn/strp, counted, and resuspended at 5−10×10^7/ml. Immunofluorescent staining was conducted using anti-human CD34-fluorescein isothiocyanate (FITC) and anti-human CD38-phycoerythrin (PE) monoclonal antibodies (Becton Dickinson, San Jose, Calif.), for 30 minutes on ice. Stained cells were washed twice and resuspended at 1×10^7 cells/ml in IMDM with 10% FBS and 1% pcn/strp. Analysis and sterile cell sorting was conducted using a FACSvantage flow cytometer (Becton Dickinson) to isolate CD34^+CD38^− and CD34^+CD38^+ subsets. The CD34^+CD38^− sort gate was set to collect only those events falling in the lowest 5% of PE fluorescence within the total CD34^+ population, to ensure acquisition of highly purified CD34^+CD38^− cells.
# (§5) Analysis of In Vitro Hematopoietic Activity of Human CD34^+CD38^−lin^− Cells Following Culture with LGD1506
# (§6) Primary human BM and CB CD34^+CD38^−lin cells were placed in culture with 20 ng/mL thrombopoietin, 100 ng/mL stem cell factor (SCF), and flt-3 ligand (TSF), a cytokine combination previously found to induce human stem and progenitor cell proliferation and differentiation in vitro (Chute et al, Blood 105:576-583 (2005), Chute et al, Stem ells 22:202-215 (2004)).
# In order to assess the hematopoietic effects of retinoid agonists on purified human HSCs, BM and CB CD34^+CD38^−lin^− cells were placed in culture with TSP with and without 1 μM all-trans retinoic acid (ATRA), an agonist of RAR. […] The hematopoietic activities of LGD0815, an RARA agonist, LGD0268, an RXR agonist, and LGD1506, an RXR selective modulator, in combination with TSF, were evaluated via measurement of total cell expansion, immunophenotype analysis, CFC content and morphologic analysis of cultured progeny versus day 0 (input) BM or CB CD34^+CD38^−lin^− cells.
# [2] = system: BM CD34^+CD38^−lin^− cells; experiment: Culture of human BM CD34+CD38-lin- cells with TSF plus retinoid/rexinoid ligand (total cell expansion, immunophenotype, CFC content, morphology); type: cell-based
# Description: as §1, §2, §3, §4, §5, §6
# In order to assess the hematopoietic effects of retinoid agonists on purified human HSCs, BM and CB CD34^+CD38^−lin^− cells were placed in culture with TSP with and without 1 μM all-trans retinoic acid (ATRA), an agonist of RAR. Total cell expansion, immunophenotype, colony forming cell (CFC) content and morphologic analysis was performed on ATRA-treated progeny and compared with both day 0 CD34^+CD38^−lin^− populations and the progeny of TSF alone to assess the impact of retinoid agonism on the differentiation of human HSCs. This analysis was extended further by cultivating BM and CB CD34^+CD38^−lin^− cells with TSF coupled with ligands with specific affinity for either RAR or RXR (provided courtesy of Ligand Pharmaceuticals, Inc., San Diego, Calif.). The hematopoietic activities of LGD0815, an RARA agonist, LGD0268, an RXR agonist, and LGD1506, an RXR selective modulator, in combination with TSF, were evaluated via measurement of total cell expansion, immunophenotype analysis, CFC content and morphologic analysis of cultured progeny versus day 0 (input) BM or CB CD34^+CD38^−lin^− cells.
# HOXB4 = experiment: Quantitative real-time PCR of HOXB4 expression in cultured CB CD34+CD38-lin- cells; type: cell-based, human
# Text: Real Time PCR Analysis of LGD506-Treated HSCs
# Extraction of total RNA from Day 0 and Day 7 CB CD34^+ populations was done using a RNeasy Mini spin column (Qiagen, Valencia, Calif.) according to the manufacturer's recommended protocol. […] Briefly, total RNA was isolated from CD34^+CD38^−lin^− cells according to the manufacturer's instructions for the RNaqueous®—Micro (Ambion) and reversed-transcribed to cDNA using iScript™ cDNA synthesis Kit (Biorad, Hercules, Calif.). cDNA concentrations were measured with a fluorometer (Turner Designs, Sunnyvale, Calif.) using RiboGreen reagent (Invitrogen). PCR amplification reactions were performed in 13 μl and contained equal amounts of cDNAs, 6.5 μL of iQ SYBR green supermix (Bio-Rad), 0.2 μM of each forward and reverse gene-specific primers for genes of interest and the normalization gene 36B4. PCR was performed on an iCycler (Bio-Rad) according to the following cycling conditions: an initial cycle of 15 min at 95° C.; 45 cycles of 45 sec at 95° C., 15 sec at 55° C., and 15 sec at 72° C.; followed by a melt-curve analysis cycle with steps of 10 sec each at 0.5° C. increments from 60 to 95° C. Amplification rates were visualized and analyzed on ICYCLER IQ optical system software version 3.0 (Bio-Rad). Gene-specific primers were purchased from Integrated DNA Technologies (Coralville, Iowa).
# human BM SRCs = experiment: In vivo long-term repopulating assay in NOD/SCID mice (SRC assay) of cultured progeny
# Description: In Vivo Long-Term Repopulating Assays in NOD/SCID Mice
# NOD/SCID mice (Schulz et al, J. Immunol. 154:180-191 (1995)) were transplanted with either day 0 FACS-sorted BM or CB CD34^+CD38^− lin^− HSC-enriched cells or the progeny of CD34^+CD38^−lin− cells cultured with TSF alone or TSF supplemented with 1 μM LGD506, an RXR-specific ligand. Cells were transplanted via tail vein injection after irradiating NOD/SCID mice with 300 cGy using an X-ray irradiator as previously described (Chute et al, Blood 100:4433-4439 (2002), Chute et al, Blood 105:576-583 (2005)). Day 0 CD34^+CD38^−lin− HSCs and their progeny were co-transplanted with 2×10^4 […] accessory cells to facilitate engraftment as previously described (Bonnet et al, Bone Marrow Transpl. 23:203-209 (1999), Bhatia et al, Proc. Natl. Acad. Sci. USA 94:5320-5325 (1997)).
# All mice in each group were sacrificed at week 8 and marrow samples were obtained by flushing their femurs with IMDM at 4° C. Red cells were lysed using red cell lysis buffer (Sigma-Aldrich) and flow cytometric analysis of human hematopoietic engraftment was performed as previously described using commercially available mAbs against human leukocyte differentiation antigens to identify engrafted human leukocytes and discriminate their hematopoietic lineages (Chute et al, Blood 100:4433-4439 (2002), Chute et al, Blood 105:576-583 (2005), Trischmann et al, J. Hematother. 2:305-313 (1993)).
# Statistical Analysis and SRC Frequency Measurements
# Comparisons of data from in vitro experiments were made using the Student's t test. For purposes of the limiting dilution analysis, a transplanted mouse was scored as positively engrafted if ≧0.1% of the marrow cells expressed human-CD45 via high resolution FACS analysis. This criteria is consistent with previously published criteria for human cell repopulation in NOD/SCID mice (Chute et al, Blood 100:4433-4439 (2002), Dorrell et al, Blood 95:102-110 (2000)). SRC frequency in each cell source was calculated using the maximum likelihood estimator as described previously by Taswell (J. Immunol. 126:1614-1619 (1981), Wang et al, Blood 89:3919-3924 (1997), Ueda et al, J. Clin. Invest. 105:1013-1021 (2000)). Confidence intervals for the frequencies were calculated using the profile likelihood method, and the likelihood ratio test was used to confirm the fit of the model.
# RXR:LXR heterodimer = conditions: unpublished data of M. Leibowitz et al.; cited from earlier work
# RXR:RAR heterodimer = conditions: unpublished data of M. Leibowitz et al.; cited from earlier work
compound,measurement,setting,value
"CC1=C(/C=C/C(C)=C/C=C/C(C)=C/C(=O)O)C(C)(C)CCC1 [ATRA, all-trans retinoic acid]",differentiation of human HSCs during culture,"[1]; ATRA with TSF, by day 7",enhanced the differentiation; also recorded: induced pronounced differentiation and myelbid maturation
same,number of CFCs,"[1]; CB cells, ATRA+TSF versus TSF alone",signficantly less CFCs; also recorded: decreased
same,percentage of CD34+ cells,"[1]; CB cells, TSF+1 μM ATRA, 7 days, versus TSF alone",marked loss; also recorded: declined relative to TSF alone
same,CD34+CD38- cells remaining in culture,"[1]; CB cells, TSF+1 μM ATRA, day 7",marked loss; also recorded: no CD34^+CD38^− cells remained
same,percentage of CD34+CD38- cells at day 7,"[2]; BM cells, TSF+1 μM ligand, day 7",caused a decline
C/C(=C/C=C/C(C)=C/C(=O)O)c1cc(C(C)(C)C)cc(C(C)(C)C)c1OCC(F)F [LGD1506],maintenance of CD34+CD38- cells in CB cultures,"[1]; CB cells, TSF+LGD1506",supported the maintenance
same,HOXB4 expression over time,HOXB4; LGD1506+TSF versus TSF alone (FIG. 3A),prevented the downregulation
same,"HOXB4 expression, percent of input (day 0) levels",HOXB4; LGD1506 added to TSF,80% and 70%
same,huCD45+ cell repopulation of transplanted mice,"human BM SRCs; cell dose 1−2.5×10^3, progeny of TSF+LGD1506 culture",no huCD45+ cell repopulation was detected
same,multilineage differentiation in engrafted mice,human BM SRCs; mice engrafted with LGD1506-treated cells,normal multilineage differentiation was evident
same,percent of transplanted mice with human repopulation,"human BM SRCs; progeny of 5×10^3 BM CD34+CD38-lin- cells, LGD1506+TSF",50-80% and 80%
same,mice showing huCD45+ cell repopulation,"human BM SRCs; progeny of 5×10^3 BM CD34+CD38-lin- cells, LGD1506+TSF, week 8",4 of 5
same,mean huCD45+ cell repopulation,"human BM SRCs; progeny of 5×10^3 BM cells, LGD1506+TSF",0.2%
same,increase in BM CD34+CD38- cell numbers compared to day 0 (input),"[2]; BM cells, LGD1506+TSF",4 fold
same,total cell expansion,"[2]; BM cells, LGD1506+TSF, day 7",13 fold
same,reduction in CFC production during culture compared to TSF alone,[2]; LGD1506+TSF culture (FIG. 2D),50%
same,morphologic examination of cultured progeny,"[2]; LGD1506+TSF cultures, data not shown",predominance of immature blasts
same,differentiation of human HSCs during culture,[2]; LGD1506 with TSF,inhibited HSC differentiation
same,CFCs less compared to TSF-cultured cells,[2]; progeny of LGD1506+TSF cultures,2 fold
same,effect on RXR:LXR heterodimer,RXR:LXR heterodimer,inhibit
same,effect on RXR:RAR heterodimer,RXR:RAR heterodimer,neutral or inhibitory effects
